Source: patent US9260382B2, “Methods of reducing virulence in bacteria” (priority 2010, dated 2016)

What was measured:
hrpA promoter (T3SS) [1] = assay: hrpA promoter-probe phrpA in Erwinia amylovora 273, flow cytometry; assay type: cell-based; settings: Ea273 (phrpA), HIM + 100 μM compound
Procedure: Wild-type Erwinia amylovora 273 was used in this study. The promoter-probe plasmid phrpA was constructed as follows. The hrpA promoter region of Erwinia amylovora 273 was amplified and cloned into pPROBE-NT to produce PhrpA. Plasmid PhrpA was electroporated into Erwinia amylovora 273. Expression of hrpA was analyzed using a FACS Calibur flow cytometer (BD Biosciences, CA). Wild-type Erwinia amylovora 273 containing phrpA was cultured in a hrp-inducing medium (HIM) containing dimethyl sulfoxide (DMSO; solvent of chemical compounds), or HIM supplemented with 100 μM of each compound, and promoter activity was assessed at 6 h and 9 h by measuring GFP intensity using flow cytometry (Table 19).

hrpA promoter (T3SS) [2] = assay: GFP reporter plasmid phrpA, flow cytometry (FACS) of hrpA promoter activity; assay type: cell-based, Dickeya dadantii 3937; settings: for mean fluorescence intensity of GFP, hrpA expression: D. dadantii 3937 (phrpA), MM + 100 μM compound; for inhibitory activity on T3SS gene (hrpA) expression, in words: D. dadantii 3937, reporter plasmid phrpA, 100 μM; for minimal effective concentration: Dickeya dadantii, read-out: minimal inhibitory concentration on hrpA expression (concentration showing inhibitory effect)
Procedure: FACS analysis of promoter activity of dspE, hrpA, hrpL, hrpN, and hrpS was carried out as described (Peng et al., 2006). Briefly, the wild-type Ech3937 and the mutant strains carrying the promoter reporter plasmid were grown on LB broth at 28° C. overnight and transferred to appropriate media. For FACS analysis, samples were collected by centrifugation, washed with 1× phosphate buffer saline (PBS) at 13,000 rpm for 1 min, and re-suspended in 1×PBS to ca 10^6 CFU/ml prior to being run in a FACS Calibur flow cytometer (BD Biosciences, CA). Three replicates were performed for each treatment.
To identify potential compounds that repress activation of T3SS, analogs and isomers of TCA and intermediates of salicylic acid and phenypropanoid biosynthesis pathways in plants were further screened for their effect on Ech3937 hrpA expression by flow cytometry (Table 9). A green fluorescent protein (GFP) reporter plasmid phrpA (pProbe-AT derivative with PCR fragment containing hrpA promoter region) was constructed, resulting in a transcriptional fusion of hrpA promoter with GFP gene. Bacterial cells containing phrpA plasmid were grown in MM supplemented with 0.1 mM of each compound. GFP intensity, which is a measurement of hrpA promoter activity, was measured by flow cytometry.
hrpA encodes the T3SS pilus required for protein translocation into plant cells. To test for an inhibitory effect on T3SS hrpA expression, the reporter plasmid phrpA was used to measure the effects of these compounds on hrpA expression. The reporter plasmid phrpA encodes a transcriptional fusion of the hrpA promoter controlling expression of green fluorescent protein (gfp). 50 μL of bacterial suspension of D. dadantii 3937 carrying the hrpA reporter (optical density at 600 nm OD600=1.0) was used as the initial inoculum and added to 5 mL of MM or MM supplemented with 100 μM of one of the compounds. The expression level of hrpA of these bacterial cells was measured by measuring GFP intensity of gated populations of the bacterial cells by flow cytometry and analyzed with Cell Quest software (BD Biosciences, San Jose, Calif.). The fluorescence intensities were an average GFP fluorescence intensity of total bacterial cells. Compounds were assayed two different times (12 and 24 h of bacterial growth) with T3SS minimal media (MM) as the control treatment for each set of experiment. Values presented in Table 14 are mean fluorescence intensity of GFP, representative of two experiments, presented as the average of three replicates with standard deviation (SD).

SMILES	Avg MFI ± SD, hrpA expression (hrpA promoter (T3SS) [1]; 6 h)	Avg MFI ± SD, hrpA expression (hrpA promoter (T3SS) [1]; 9 h)	mean fluorescence intensity of GFP, hrpA expression (hrpA promoter (T3SS) [2]; 12 h)	mean fluorescence intensity of GFP, hrpA expression (hrpA promoter (T3SS) [2]; 24 h)	inhibitory activity on T3SS gene (hrpA) expression, in words (hrpA promoter (T3SS) [2])	minimal effective concentration (hrpA promoter (T3SS) [2])
CCOP(=O)(/C=C/c1ccc(O)cc1)OCC [Compound 114, Diethyl trans-2-(4-hydroxyphenyl)-vinylphosphonate]	495.8 ± 14.2	661.2 ± 134.3	55.4 ± 1.0	76.5 ± 5.6	did not exhibit any activity	
NC/C=C/c1ccc(O)cc1 [Compound 117, para-Coumarylamine]	452.6 ± 9.5	547.9 ± 112.4	49.8 ± 1.6	73.1 ± 2.0	did not show any inhibitory activity	
CN(C)c1ccc(/C=C/C(=O)O)cc1 [Compound 112, trans-4-Dimethylaminocinnamic acid]	87.0 ± 4.0	37.3 ± 3.7	23.8 ± 4.3	60.7 ± 6.4		
CCOC(=O)[C@@H]1C[C@H]1c1ccc(OC)cc1 (relative stereo) [Compound 100, Ethyl trans-2-(4-methoxyphenyl)-1-cyclopropanecarboxylate]	447.8 ± 20.2	594.6 ± 3.5	45.3 ± 3.4	119.1 ± 22.1		
COc1ccc(/C=C/CN2C(=O)c3ccccc3C2=O)cc1 [Compound 118, N-(4-Methoxycinnamyl)phthalimide]	361.3 ± 28.6	520.4 ± 16.2	59.0 ± 0.4	83.8 ± 1.7		
O=P(O)(O)/C=C/c1ccc(O)cc1 [Compound 115, trans-2-(4-Hydroxyphenyl)-vinylphosphonic acid]	442.4 ± 2.3	553.3 ± 32.7	57.9 ± 1.6	79.6 ± 3.3	did not exhibit any activity	
O=C(O)/C=C/c1ccc(C(F)(F)F)cc1 [Compound 113, trans-4-Trifluoromethylcinnamic acid]	84.2 ± 7.5	97.4 ± 23.6	24.4 ± 0.9	68.5 ± 5.7	inactive	100 µM
O=C(O)/C=C/c1ccc(CO)cc1 [Compound 124, trans-4-Hydroxymethylcinnamic acid]	419.8 ± 12.2	444.3 ± 11.4	44.9 ± 3.5	78.1 ± 3.4	did not show any inhibitory activity	
CCOS(=O)(=O)/C=C/c1ccc(O)cc1 [Compound 122, Ethyl trans-2-(4-hydroxyphenyl)-ethenylsulfonate]	2042.8 ± 20.7	2900.6 ± 120.1	38.6 ± 1.8	60.9 ± 0.8	did not exhibit any activity	
COc1ccc(/C=C/CN)cc1 [Compound 119, trans-4-Methoxycinnamylamine]	208.6 ± 18.6	232.9 ± 44.4	47.8 ± 3.2	68.2 ± 10.4	did not show any inhibitory activity	
O=C(O)[C@@H]1C[C@H]1c1ccc(O)cc1 (relative stereo) [Compound 107, trans-2-(4-Hydroxyphenyl)-1-cyclopropanecarboxylic acid]	1464.3 ± 76.5	1348.0 ± 82.6	45.9 ± 2.7	122.1 ± 17.9	no inhibitory activity	
COc1ccc([C@@H]2C[C@H]2C(=O)O)cc1 (relative stereo) [Compound 105, trans-2-(4-Methoxyphenyl)-1-cyclopropanecarboxylic acid]	345.3 ± 11.9	200.2 ± 11.0	22.9 ± 2.6	82.4 ± 5.8		100 µM
O=C(O)CCc1ccccc1 [Compound 008, Hydrocinnamic acid]	395.9 ± 16.0	342.0 ± 11.7				
NNC(=O)/C=C/c1ccc(O)cc1 [Compound 133, trans-3-(4-Hydroxyphenyl)acrylohydrazid]	1716.5 ± 33.1	2780.9 ± 58.5				
O=C(O)/C=C/c1ccccc1Cl [Compound 021, trans-2-Chlorocinnamic acid]	225.7 ± 35.8	192.7 ± 8.6				
COc1cccc(/C=C/C(=O)O)c1 [Compound 016, trans-3-Methoxycinnamic acid]	265.3 ± 24.4	198.5 ± 20.0				
COc1ccc(/C=C/C(=O)O)cc1 [Compound 017, trans-4-Methoxycinnamic acid]	132.5 ± 5.5	76.4 ± 2.7				
O=C(Cc1ccccc1)c1ccc(C2CC2C(=O)O)cc1 (stereo not drawn) [Compound 165, trans-2-[(4′-Benzylcarbonyl]phenylcyclopropane-1-carboxylic acid]	292.8 ± 17.1	229.4 ± 15.0				
O=C(NO)c1ccccc1O [Compound 135, Salicylhydroxamic acid]	124.7 ± 7.7	147.8 ± 4.3				
O=C(O)c1ccc(O)cc1 [Compound 144, 4-Hydroxybenzoic acid]	434.4 ± 22.1	424.7 ± 24.8				
O=C(O)/C=C/c1ccc(-c2ccccc2)cc1 [Compound 108, trans-4-Phenylcinnamic acid]			31.6 ± 2.5	109.0 ± 19.8	inactive	
O=C(/C=C/c1cccc(F)c1)NO [Compound 153, trans-3-Fluorocinnamohydroxamic acid]	177.1 ± 11.9	110.6 ± 3.2				
O=C(/C=C/c1ccc(Cl)cc1)NO [Compound 148, trans-4-Chlorocinnamohydroxamic acid]	22.5 ± 3.7	21.8 ± 25.2				
O=C(O)/C=C/c1cccnc1 [Compound 013, trans-3-(3-Pyridyl)acrylic acid]	468.3 ± 7.7	245.7 ± 3.1				
O=C(NO)[C@@H]1C[C@H]1c1ccccc1 (relative stereo) [Compound 162, trans-2-Phenylcyclopropane-1-carbohydroxamic acid]	711.1 ± 2.8	701.9 ± 2.8				
O=Cc1ccc(/C=C/C(=O)O)cc1 [Compound 029, trans-4-Formlycinnamic acid]	285.1 ± 40.8	218.3 ± 9.9				
O=C(O)/C=C/c1ccc(O)c(O)c1 [Compound 003, 3,4-Dihydroxycinnamic acid]	783.4 ± 80.2	787.3 ± 25.2				
O=Cc1ccc(/C=C/C(=O)NO)cc1 [Compound 146, trans-4-Formylcinnamohydroxamic acid]	414.3 ± 31.6	435.2 ± 36.2				
